Data as given in patent US11802285B2, “Cytotoxic T cell response modifiers” (DEUTSCHES KREBSFORSCHUNGSZENTRUM STIFTUNG DES ÖFFENTLICHEN …, priority 2013, dated 2023).

System: MCF7 breast cancer cells
Assay: Luc-CTL assay (luciferase-based readout of CTL-mediated tumor cell lysis, with viability control without CTLs)
Settings: for T cell mediated lysis of luciferase transfected MCF7 breast cancer target cells (reduction of luciferase activity): co-culture with survivin specific CTL clone, deconvoluted siRNA pool (FIG. 5A, 10A); for viability of luciferase transfected MCF7 breast cancer cells: in the absence of T cells (FIG. 5B, 10B)
Source text: In order to comprehensively identify immune checkpoint regulators in an unbiased manner, we harnessed a previously described approach to measure tumor-specific T-cell cytotoxicity which is based on quantifying residual cell-associated luciferase expression following exposure of Luc-expressing cancer cells with CTLs (Brown et al., 2005). We adapted and extended aforementioned approach for high-throughput RNAi screening purposes and termed it ‘Luc-CTL’ assay. Briefly, the screening experiment was set up as follows: In total, three RNAi screens were performed in duplicate and reverse transfection of cells with siRNA pools was performed by delivering 15 μl of RPMI (Invitrogen) containing 0.05 μl of RNAiMAX (Invitrogen). After 30 min of incubation at room temperature, 3000 MCF7 cells (screen 1: MCF7 stably expressing luciferase, screen 2 and 3: wild-type MCF7 cells) in 30 μl of DMEM medium (Invitrogen) supplemented with 10% FBS (Invitrogen) were added to the siRNA transfection mix. Plates were then incubated at 37° C., 5% CO2. 24 h later, cells were either transiently transfected with a luciferase expression plasmid (screen 2) using TransIT-LT1 transfection reagent (Mirius Bio LLC, Madison, USA) according to the manufacturer's instructions or not (screen 1 and screen 3). 72 h post siRNA transfection cancer cells were either challenged with CTLs and anti-CD3×anti-EpCAM bi-specific antibody (screen 1 and screen 2; condition with addition of CTLs) or not (screen 1 and screen 2; condition without addition of CTLs and screen 3). […]
Plate reader data from RNAi screens were statistically analyzed using the cellHTS2 package in R/Bioconductor (Boutros et al., 2006). […] For screen 1 and screen 2, scores from both conditions, i.e. addition of CTLs and without addition of CTLs, were further quantile normalized against each other using the aroma.light package in R. Differential scores were calculated by subtracting quantile normalized scores without addition of CTLs from scores derived with addition of CTLs. In order to robustly identify genes that positively modulate CTL mediated cytotoxicity and to avoid biases potentially introduced by employing CTLs from different donors and employing genetically engineered as well as unmodified MCF7 cells, the 150 top-ranking genes as evaluated by the differential score were extracted for the independent screens 1 and 2 and the overlap between candidate lists was determined. […] Thereby, siRNAs generally affecting cell viability, as determined by intracellular ATP levels, could be excluded.
In order to identify tumor-associated genes that inhibit cell killing by cytotoxic T lymphocytes (CTL), we adapted a luciferase-based readout assay, henceforth referred to as Luc-CTL assay (FIG. 1A). […]

| Substance | T cell mediated lysis of luciferase transfected MCF7 breast cancer target cells (reduction of luciferase activity) | viability of luciferase transfected MCF7 breast cancer cells |
| --- | --- | --- |
| TAS2R3 siRNA s3: TAS2R3 siRNA, sequence CCGCAUCUCUGAUCAAUGA, SEQ ID NO: 3 (listed as RNA, chemistry not given here) | significantly increase | no impact |
| TAS2R3 siRNA s4: TAS2R3 siRNA, sequence GCAGACAUUUGUAGUGAUG, SEQ ID NO: 4 (listed as RNA, chemistry not given here) | significantly increase | no impact |
